# Measured values: US11053204B2, “Pyrimidinyloxy benzene derivatives as herbicides” (FMC Corporation, priority 2015, dated 2021)
# Legend:
# Assay type in all cases: in vivo
# [1] = tested on: Italian ryegrass (Lolium multiflorum); test: Test A preemergence, visual injury rating; settings: Lolium multiflorum, pre-emergence, 240 h, 0 to 100 scale (0 no effect, 100 complete control), read-out: Ryegrass, Italian plant response rating
# Procedure, shortened: (§1)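 Visual injury scored 0–100 (100 = complete control) against untreated controls about 10 days after treatment in a greenhouse. Test chemicals, formulated with surfactant in non-phytotoxic solvent, were sprayed on soil preemergence or on 2-10 cm, one- to two-leaf plants postemergence.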
# [2] = tested on: barnyardgrass (Echinochloa crus-galli); test: Test A preemergence, visual injury rating; settings: Echinochloa crus-galli, pre-emergence, 240 h, 0 to 100 scale (0 no effect, 100 complete control), read-out: Barnyardgrass plant response rating
# Procedure, shortened: as §1
# [3] = tested on: giant foxtail (Setaria faberii); test: Test A preemergence, visual injury rating; settings: Setaria faberi, pre-emergence, 240 h, 0 to 100 scale (0 no effect, 100 complete control), read-out: Foxtail, Giant plant response rating
# Procedure, shortened: as §1
# kochia (Kochia scoparia) [4] = test: Test A preemergence, visual injury rating; settings: Bassia scoparia, pre-emergence, 240 h, 0 to 100 scale (0 no effect, 100 complete control), read-out: Kochia plant response rating
# Procedure, shortened: as §1
# [5] = tested on: pigweed (Amaranthus retroflexus); test: Test A preemergence, visual injury rating; settings: Amaranthus retroflexus, pre-emergence, 240 h, 0 to 100 scale (0 no effect, 100 complete control), read-out: Pigweed plant response rating
# Procedure, shortened: as §1
# [6] = tested on: ragweed (common ragweed, Ambrosia elatior); test: Test A preemergence, visual injury rating; settings: Ambrosia artemisiifolia, pre-emergence, 240 h, 0 to 100 scale (0 no effect, 100 complete control), read-out: Ragweed plant response rating
# Procedure, shortened: as §1
# [7] = tested on: Italian ryegrass (Lolium multiflorum); test: Test A postemergence, visual injury rating; settings: Lolium multiflorum, post-emergence, 240 h, 0 is no effect, 100 is complete control, read-out: Ryegrass, Italian plant response rating (0 to 100 scale)
# Procedure, shortened: as §1
# [8] = tested on: barnyardgrass (Echinochloa crus-galli); test: Test A postemergence, visual injury rating; settings: Echinochloa crus-galli, post-emergence, 240 h, 0 is no effect, 100 is complete control, read-out: Barnyardgrass plant response rating (0 to 100 scale)
# Procedure, shortened: as §1
# [9] = tested on: blackgrass (Alopecurus myosuroides); test: Test A postemergence, visual injury rating; settings: Alopecurus myosuroides, post-emergence, 240 h, 0 is no effect, 100 is complete control, read-out: Blackgrass plant response rating (0 to 100 scale)
# Procedure, shortened: as §1
# corn (Zea mays) = test: Test A postemergence, visual injury rating; settings: Zea mays, post-emergence, 240 h, 0 is no effect, 100 is complete control, read-out: Corn plant response rating (0 to 100 scale)
# Procedure, shortened: as §1
# [10] = tested on: galium (catchweed bedstraw, Galium aparine); test: Test A postemergence, visual injury rating; settings: Galium, post-emergence, 240 h, 0 is no effect, 100 is complete control, read-out: Galium plant response rating (0 to 100 scale)
# Procedure, shortened: as §1
# [11] = tested on: giant foxtail (Setaria faberii); test: Test A postemergence, visual injury rating; settings: Setaria faberi, post-emergence, 240 h, 0 is no effect, 100 is complete control, read-out: Foxtail, Giant plant response rating (0 to 100 scale)
# Procedure, shortened: as §1
# kochia (Kochia scoparia) [12] = test: Test A postemergence, visual injury rating; settings: Bassia scoparia, post-emergence, 240 h, 0 is no effect, 100 is complete control, read-out: Kochia plant response rating (0 to 100 scale)
# Procedure, shortened: as §1
# [13] = tested on: pigweed (Amaranthus retroflexus); test: Test A postemergence, visual injury rating; settings: Amaranthus retroflexus, post-emergence, 240 h, 0 is no effect, 100 is complete control, read-out: Pigweed plant response rating (0 to 100 scale)
# Procedure, shortened: as §1
# [14] = tested on: ragweed (common ragweed, Ambrosia elatior); test: Test A postemergence, visual injury rating; settings: Ambrosia artemisiifolia, post-emergence, 240 h, 0 is no effect, 100 is complete control, read-out: Ragweed plant response rating (0 to 100 scale)
# Procedure, shortened: as §1
# [15] = tested on: wheat (Triticum aestivum); test: Test A postemergence, visual injury rating; settings: Triticum aestivum, post-emergence, 240 h, 0 is no effect, 100 is complete control, read-out: Wheat plant response rating (0 to 100 scale)
# Procedure, shortened: as §1
# [16] = tested on: ragweed (common ragweed, Ambrosia elatior); test: Test C preemergence, plant response rating; settings: Ambrosia artemisiifolia, pre-emergence, Preemergence
# Text: Seeds of plant species selected from blackgrass (Alopecurus myosuroides), ryegrass, Italian (Italian ryegrass, Lolium multiflorum), wheat (winter wheat, Triticum aestivum), galium (catchweed bedstraw, Galium aparine), corn (Zea mays), crabgrass, large (large crabgrass, Digitaria sanguinalis), foxtail, giant (giant foxtail, Setaria faberii), johnsongrass (Sorghum halepense), lambsquarters (Chenopodium album), morningglory (Ipomoea coccinea), nutsedge, yellow (yellow nutsedge, Cyperus esculentus), pigweed (Amaranthus retroflexus), ragweed (common ragweed, Ambrosia elatior), soybean (Glycine max), barnyardgrass (Echinochloa crus-galli), oilseed rape (Brassica napus), pigweed, palmer (palmer pigweed, Amaranthus palmeri), waterhemp (common waterhemp, Amaranthus rudis), velvetleaf (Abutilon theophrasti), kochia (Kochia scoparia), surinam grass (Brachiaria decumbens), nightshade (eastern black nightshade, Solanum ptycanthum), wild poinsettia (Euphorbia heterophylla), windgrass (Apera spica-venti), and oat, wild (wild oat Avena fatua), were planted into a blend of loam soil and sand or a silt loam soil and treated preemergence with test chemicals formulated in a non-phytotoxic solvent mixture which included a surfactant.
# At the same time, plants selected from these crop and weed species and also chickweed (common chickweed, Stellaria media), buckwheat, wild (wild buckwheat, Polygonum convolvulus), wild mustard (Sinapis arvensis), field poppy (Papaver rhoeas), field violet (Viola arvensis), geranium, cutleaf (cutleaf geranium, Geranium dissectum), Canada thistle (Cirsium arvense), and speedwell (bird's-eye speedwell, Veronica persica), were planted in pots containing Sunshine Redi-Earth® planting medium comprising spaghnum peat moss, vermiculite, starter nutrients and dolomitic limestone and treated with postemergence applications of test chemicals formulated in the same manner. Plants ranged in height from 2 to 18 cm (1- to 4-leaf stage) for postemergence treatments. Treated plants and controls were maintained in a greenhouse for 13 to 15 d, after which time all species were compared to controls and visually evaluated. Plant response ratings, summarized in Table C, are based on a scale of 0 to 100 where 0 is no effect and 100 is complete control. A dash (-) response means no test result.
smiles,measurement,setting,value
"O=C(OCCC(F)(F)F)c1c(Cl)cccc1Oc1ncc(Cl)cn1 [Compound 15, 3,3,3-trifluoropropyl 2-chloro-6-[(5-chloro-2-pyrimidinyl)oxy]benzoate]",pest or weed control at 125 g/ha,[1]; 125 g ai/ha,40%
same,pest or weed control at 500 g/ha,[1]; 500 g ai/ha,90%
same,pest or weed control at 125 g/ha,[2]; 125 g ai/ha,100%
same,pest or weed control at 500 g/ha,[2]; 500 g ai/ha,100%
same,pest or weed control at 125 g/ha,[3]; 125 g ai/ha,100%
same,pest or weed control at 500 g/ha,[3]; 500 g ai/ha,100%
same,pest or weed control at 125 g/ha,kochia (Kochia scoparia) [4]; 125 g ai/ha,100%
same,pest or weed control at 500 g/ha,kochia (Kochia scoparia) [4]; 500 g ai/ha,100%
same,pest or weed control at 125 g/ha,[5]; 125 g ai/ha,100%
same,pest or weed control at 500 g/ha,[5]; 500 g ai/ha,100%
same,pest or weed control at 125 g/ha,[6]; 125 g ai/ha,0%
same,pest or weed control at 500 g/ha,[6]; 500 g ai/ha,10%
same,pest or weed control at 125 g/ha,[7]; 125 g ai/ha,60%
same,pest or weed control at 500 g/ha,[7]; 500 g ai/ha,90%
same,pest or weed control at 125 g/ha,[8]; 125 g ai/ha,90%
same,pest or weed control at 500 g/ha,[8]; 500 g ai/ha,100%
same,pest or weed control at 125 g/ha,[9]; 125 g ai/ha,90%
same,pest or weed control at 500 g/ha,[9]; 500 g ai/ha,100%
same,plant injury at 125 g/ha,corn (Zea mays); 125 g ai/ha,50%
same,plant injury at 500 g/ha,corn (Zea mays); 500 g ai/ha,90%
same,pest or weed control at 125 g/ha,[10]; 125 g ai/ha,100%
same,pest or weed control at 500 g/ha,[10]; 500 g ai/ha,100%
same,pest or weed control at 125 g/ha,[11]; 125 g ai/ha,90%
same,pest or weed control at 500 g/ha,[11]; 500 g ai/ha,100%
same,pest or weed control at 125 g/ha,kochia (Kochia scoparia) [12]; 125 g ai/ha,100%
same,pest or weed control at 500 g/ha,kochia (Kochia scoparia) [12]; 500 g ai/ha,100%
same,pest or weed control at 125 g/ha,[13]; 125 g ai/ha,100%
same,pest or weed control at 500 g/ha,[13]; 500 g ai/ha,100%
same,pest or weed control at 125 g/ha,[14]; 125 g ai/ha,20%
same,pest or weed control at 500 g/ha,[14]; 500 g ai/ha,40%
same,plant injury at 125 g/ha,[15]; 125 g ai/ha,20%
same,plant injury at 500 g/ha,[15]; 500 g ai/ha,100%
same,pest or weed control at 125 g/ha,"[16]; 125 g ai/ha, scale of 0 to 100",20%
same,pest or weed control at 16 g/ha,"[16]; 16 g ai/ha, scale 0 to 100",10%
same,pest or weed control at 31 g/ha,"[16]; 31 g ai/ha, scale 0 to 100",10%
same,pest or weed control at 62 g/ha,"[16]; 62 g ai/ha, scale 0 to 100",30%
